We go through three molecules from patent US7105564B1, “Pharmaceutical composition comprising a dual antagonist against PGD2/TXA2 receptors having a [2.2.1] or [3.1.1] bicyclic skeleton” (Shionogi & Co., Ltd., priority 1999, dated 2006).

Like-named read-outs stand apart in the source and are kept apart here. Marks after values point to notes of the source that are not given here.

For assay [1], the target named is T1, PGD2 receptor (Homo sapiens, UniProt Q13258).
T1 sequence (Q13258 1-359): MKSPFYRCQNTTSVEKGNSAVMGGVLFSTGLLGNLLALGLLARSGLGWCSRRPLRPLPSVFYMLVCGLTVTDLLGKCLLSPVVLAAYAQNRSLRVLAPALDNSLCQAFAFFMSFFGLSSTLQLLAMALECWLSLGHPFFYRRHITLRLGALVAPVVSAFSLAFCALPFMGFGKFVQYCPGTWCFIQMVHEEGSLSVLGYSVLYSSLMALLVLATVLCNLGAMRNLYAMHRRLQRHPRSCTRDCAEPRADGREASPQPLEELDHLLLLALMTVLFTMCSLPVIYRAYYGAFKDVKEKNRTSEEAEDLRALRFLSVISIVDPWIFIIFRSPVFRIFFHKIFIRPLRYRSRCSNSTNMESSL
In words: Antagonistic activity against PGD2 receptor using human platelet (inhibition of cAMP increase caused by PGD2). Type of assay: cell-based. On the procedure: Experiment 3 Evaluation of Antagonistic Activity Against PGD2 Receptor Using Human Platelet
Peripheral blood was collected from a healthy volunteer using a syringe in which 1/9 volume of a citric acid/dextrose solution was previously added. The sample was subjected to centrifugation at 180 g for 10 min to obtain the supernatant (PRP: platelet rich plasma). The resultant PRP was washed 3 times with a washing buffer and the number of platelets was counted with a micro cell counter. A suspension adjusted to contain the platelets at a final concentration of 5×10^8/ml was warmed at 37° C., then subjected to the pre-treatment with 3-isobutyl-1-methylxanthine (0.5 mM) for 5 min. To the suspension was added a test compound diluted at various concentration, and 10 minutes later, 0.1 μM PGD2 was added to induce the reaction 2 minutes later, hydrochloric acid was added to terminate the reaction. The platelet was destroyed with an ultrasonic homogenizer. After centrifugation, the cAMP in the supernatant was determined by radioimmunoassay. PGD2 receptor antagonism of a drug was evaluated as follows: the inhibition rate regarding cAMP increased by the addition of PGD2 was determined at each concentration, and the concentration of the drug required for 50% inhibition (IC50) was calculated.

The target in assay [2] is T1, PGD2 receptor. Briefly: Binding activity to PGD2 receptor in human platelet membrane fraction ([3H]PGD2). Details: The platelets were homogenized using a homogenizer (Ultra-Turrax) followed by centrifugation 3 times at 20,000 rpm; from tissue; host or cells: human platelet membrane fraction from blood of healthy volunteers. Here is the method:
Experiment 1 Binding activity to PGD2 Receptor
(§1) (1) Preparation of Human Platelet Membrane Fraction
Blood was collected using a plastic syringe containing 3.8% sodium citrate from the vein of healthy volunteers (adult male and female), then put into a plastic test tube and mixed by slow-reversion. The sample was then centrifuged at 1800 rpm, for 10 min at room temperature, and the supernatant containing PRP (platelet-rich plasma) was collected. The PRP was recentrifuged at 2300 rpm, for 22 min at room temperature to obtain platelets. The platelets were homogenized using a homogenizer (Ultra-Turrax) followed by centrifugation 3 times at 20,000 rpm, 10 min at 4° C.. to obtain a platelet membrane fraction. After protein determination, the membrane fraction was adjusted to 2 mg/ml and preserved in a refrigerator at −80° C.. until using for the binding test.
(2) Binding to PGD2 Receptor
To a binding-reaction solution (50 mM Tris/HCl, pH 7.4, 5 mM MgCl2) (0.2 ml) were added the human platelet membrane fraction (0.1 mg) and 5 nM [^3H]PGD2 (115 Ci/mmol), and the mixture was reacted at 4° C. for 90 min. After the reaction, the mixture was filtered through a glass fiber filter paper and washed several times with cooled physiological saline, then the radioactivity retained on the filter paper was measured. The specific-binding ratio was calculated by subtracting the non-specific binding ratio which is the radioactivity similarly measured in the presence of 10 μM PGD2 from the total binding.

The subject of assay [3] is Male Hartley guinea pigs. Briefly: Antigen-induced increase in the eosinophil number in bronchoalveolar lavage fluid. As to conditions: for Eosinophils, inhibition % / Total cells, inhibition % / Cell number, Eosinophils / Cell number, Total cells: 10 mg/kg orally, 1 hour before and 24 and 48 hours after challenge; for Cell number, Eosinophils / Cell number, Total cells: BAL 72 hours; for eosinophil infiltration (in words): summary of Tables 37-39. Type of assay: in vivo, guinea pig. Here is the method:
Antigen-induced increase in the eosinophil number in bronchoalveolar lavage fluid.
As described above, the animals were sensitized and challenged with antigen, seventy-two hours later, bronchoalveolar lavage was performed with 10 mL of saline. After the number of total cells in the recovered fluid was counted, smear samples were made. The samples were stained with May Grünward-Giemsa Stain, and differential cell count was performed by counting 500 cells/each sample. The eosinophil number was calculated by the ratio of the number of eosinophils, macrophages, neutrophils and lymphocytes. Compounds were orally administered three times 1 hour before and 24 and 48 hours after the challenge. The results are shown as follows. *: P<0.05, * *: P<0.01 vs Vehicle(Dunnett's test), : P<0. 01 vs Vehicle(Student's t test). ( ): inhibition %.

For assay [4], the system named is Male Hartley guinea pigs. Briefly: Antigen-induced bronchoconstriction. As to conditions: for antigen-induced bronchoconstriction (in words): summary of Tables 40-42. Type of assay: in vivo, guinea pig. On the procedure:
Antigen-induced bronchoconstriction
Male Hartley guinea pigs were passively sensitized by intravenous injection of anti-OVA serum (antibody titer: 1: 3200), and 48 hours later, the animals were challenged by intravenous injection of OVA (70 micro g/kg). The bronchoconstriction induced by antigen was continuously monitored by means of modified method of Konzett-Rössler technique. The peak value of bronchoconstriction in each animal was used for evaluation of compounds. Compound (I-1b) and compound (B-2) were orally administered 1 hour before, compound (A) 2 hours before antigen challenge. The results are shown as follows. *: P<0.05 vs Vehicle, ##: P<0.01 vs Vehicle. ( ): inhibition %.

In assay [5] the test system is Male Hartley guinea pigs. In words: Antigen-induced bronchial hyperresponsiveness. Type of assay: in vivo, guinea pig. Conditions: for Log PD200: acetylcholine dose for 200% increase in bronchoconstriction; for induction of bronchial hyperresponsiveness (in words): summary of Tables 34-36. On the procedure:
Antigen-induced bronchial hyperresponsiveness
Male Hartley guinea pigs were actively sensitized to ovalbumin (OVA) by inhalation of aerosolized solution of 1% ovalbumin twice at a week interval. One week after the second sensitization, the animals were treated with antihistamine, diphenhydramine (10 mg/kg, i.p.), and then challenged with 1% OVA aerosol for 5 min. Twenty four hours later, acetylcholine at doses at 3.13, 6. 25, 12.5, 25, 50 and 100 micro g/kg was sequentially injected into the animals which were anesthetized with pentobarbital (30 mg/kg, i.p.). The bronchoconstriction induced by each dose of acetylcholine was monitored by the modified method of Konzett-Rössler technique, and made a dose-response curve of acetylcholine. Using the dose-response curve, the dose required for 200% increase in bronchoconstriction from baseline (PD200) was calculated in each animal and used as an indication of bronchial responsiveness. Compounds were orally administered 1 hour before antigen challenge. **: P<0.01 vs Vehicle(Dunnett's test), ##: P<0.01 vs Vehicle(Student's t test).

A further assay has as its target T2, TXA2 receptor (Homo sapiens, UniProt P21731).
T2 construct: The human platelet membrane fraction was prepared in accordance with Experiment 1 (1); from tissue; host or cells: human platelet membrane fraction from blood of healthy volunteers
T2 sequence (P21731 1-343): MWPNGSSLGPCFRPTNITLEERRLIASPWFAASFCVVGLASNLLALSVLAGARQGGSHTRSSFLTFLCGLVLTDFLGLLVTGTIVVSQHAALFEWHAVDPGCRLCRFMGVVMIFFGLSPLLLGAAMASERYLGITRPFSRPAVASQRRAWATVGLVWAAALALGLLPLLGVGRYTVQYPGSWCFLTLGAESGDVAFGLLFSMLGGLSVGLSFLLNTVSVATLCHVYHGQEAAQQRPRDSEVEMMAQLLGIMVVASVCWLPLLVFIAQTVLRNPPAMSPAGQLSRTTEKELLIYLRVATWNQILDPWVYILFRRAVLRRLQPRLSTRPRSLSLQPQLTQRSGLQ
Briefly: Binding activity to TXA2 receptor in human platelet membrane fraction ([3H](+)-S-145 sodium salt). Here is the method: Experiment 2 Binding activity to TXA2 Receptor
as §1
The human platelet membrane fraction was prepared in accordance with Experiment 1 (1).
(2) Binding to TXA2 Receptor
To a binding-reaction solution (50 mM Tris/HCl, pH 7.4, 10 mM MgCl2) (0.2 ml) were added the human platelet membrane fraction (0.05 mg) and 2 nM Sodium [^3H](+)-(5Z)-7- [3-endo- [(phenylsulfonyl)amino]bicyclo[2.2.1]hept-2-exo-yl]heptenoate (Japanese Patent Publication (Kokoku) No.79060/1993, hereinafter referred to as (+)—S—145 sodium salt) (26.4 Ci/mmol), and the mixture was reacted at room temperature for 90 min. After the reaction, the resultant mixture was filtered through a glass fiber filter paper and washed several times with cooled physiological saline, then the radioactivity retained on the filter paper was measured. The specific-binding ratio was calculated by subtracting the non-specific binding ratio (the radio activity similarly determined in the presence of 10 μM (+)—S—145 sodium salt) from the total binding.

Setting [6] is: Comparative Experiment 1, read-out: Experiment 3 Antaginistic activity against PGD2 receptor IC50.
The mark [7] stands for this setting: Comparative Experiment 1, read-out: Experiment 1 Antaginistic activity against PGD2 receptor IC50.
The mark [8] stands for this setting: 3 mg/kg orally 2 hours before antigen challenge.
The mark [9] stands for this setting: 10 mg/kg orally 2 hours before antigen challenge.
The mark [10] stands for this setting: 1 mg/kg orally 1 hour before antigen challenge.
The mark [11] stands for this setting: 10 mg/kg orally 1 hour before antigen challenge.
Where [12] appears, read: 30 mg/kg orally 1 hour before antigen challenge.

With `O=C(O)CCC/C=C\C[C@H]1[C@@H]2CC[C@@H](C2)[C@@H]1NS(=O)(=O)c1ccccc1` [A], the IC50 – broadly, the point on the concentration scale where inhibition reaches its midpoint – at PGD2 receptor [1] (setting [6]) was above 10000 nM. In addition, the IC50 on PGD2 receptor [2] (setting [7]) was above 10000 nM. Besides, in the assay with Male Hartley guinea pigs [3], the “Eosinophils, inhibition %” value is −18%; the “Total cells, inhibition %” value is given as −18%; the “Cell number, Eosinophils” value was 4.90 ± 0.73 ×10^6 cells/animal; the “Cell number, Total cells” value is on record as 13.78 ± 1.75 ×10^6 cells/animal. Besides, the “eosinophil infiltration (in words)” value in the assay on Male Hartley guinea pigs [3] was “did not show any inhibitory actions”. Also, in the assay on Male Hartley guinea pigs [4] (setting [8]), the Peak bronchoconstriction turned out to be 55.3 ± 6.7 cm H2O and the “Peak bronchoconstriction, inhibition %” value is 7%. Further, in the assay on Male Hartley guinea pigs [4] (setting [9]), the Peak bronchoconstriction is recorded as 18.8 ± 3.3 cm H2O and the “Peak bronchoconstriction, inhibition %” value was found to be 68%. Besides, the “antigen-induced bronchoconstriction (in words)” value with Male Hartley guinea pigs [4] is given as “dramatically suppressed”. Besides, the “Log PD200” value with Male Hartley guinea pigs [5] (setting [10]) is listed as 1.29 ± 0.04. For the same molecule, the “Log PD200” value in the assay on Male Hartley guinea pigs [5] (setting [11]) is given as 1.61 ± 0.09**. Further, the “induction of bronchial hyperresponsiveness (in words)” value in the assay on Male Hartley guinea pigs [5] is “suppressed”.

On to `CC1(C)[C@H]2C[C@H](C/C=C\CCCC(=O)O)[C@@H](NC(=O)c3csc4ccc(O)cc34)[C@@H]1C2` [Compound B-2], for which, in the assay with Male Hartley guinea pigs [3], the “Eosinophils, inhibition %” value is recorded as 43%; the “Total cells, inhibition %” value is 45%; the “Cell number, Eosinophils” value is on record as 4.49 ± 0.63 ×10^6 cells/animal; the “Cell number, Total cells” value is reported as 13.01 ± 1.58 ×10^6 cells/animal. The “eosinophil infiltration (in words)” value in the assay with Male Hartley guinea pigs [3] was “significantly suppressed”. In the assay on Male Hartley guinea pigs [4] (setting [10]), the Peak bronchoconstriction was 36.5 ± 18.2 cm H2O and the “Peak bronchoconstriction, inhibition %” value was −20%. Besides, in the assay with Male Hartley guinea pigs [4] (setting [12]), the Peak bronchoconstriction amounted to 51.8 ± 16.3 cm H2O and the “Peak bronchoconstriction, inhibition %” value is reported as −71%. Also, the “antigen-induced bronchoconstriction (in words)” value with Male Hartley guinea pigs [4] is “did not suppress”. Moreover, the “Log PD200” value with Male Hartley guinea pigs [5] (setting [11]) is 1.17 ± 0.05. The “induction of bronchial hyperresponsiveness (in words)” value in the assay with Male Hartley guinea pigs [5] is on record as “did not inhibit”.

For `O=C(O)CCC/C=C\C[C@H]1[C@@H]2CC[C@@H](C2)[C@@H]1NC(=O)c1ccc(S(=O)(=O)n2cccc2)s1` [Compound I-1b, (5Z)-7-{(1R,2S,3S,4S)-3-[5-(pyrrol-1-ylsulfonyl)-thiophen-2-ylcarbonylamino]-bicyclo[2.2.1]hept-2-yl}-5-heptenoic acid], the IC50 is 1.3 nM on PGD2 receptor [1] (0.1 μM PGD2, read-out: Inhibitory activity for the increase of cAMP caused by PGD2 in human platelet IC50); 1.3 nM at PGD2 receptor [1] (setting [6]); 4.3 nM on PGD2 receptor [2] (5 nM [3H]PGD2, 4° C., 90 min, read-out: Binding activity to PGD2 receptor in human platelet membrane fraction IC50); 4.3 nM on PGD2 receptor [2] (setting [7]); 3 nM on TXA2 receptor (2 nM [3H](+)-S-145 sodium salt, room temperature, 90 min, read-out: Binding activity to TXA2 receptor in human platelet membrane fraction IC50); 3 nM at TXA2 receptor (Comparative Experiment 1, read-out: Experiment 2 Antaginistic activity against TXA2 receptor IC50). For the same molecule, the Peak bronchoconstriction in the assay with Male Hartley guinea pigs [4] (setting [10]) is listed as 47.4 ± 11.4 cm H2O; in the assay with Male Hartley guinea pigs [4] (setting [11]), 28.4 ± 12.9 cm H2O. For the same molecule, the results for the “Peak bronchoconstriction, inhibition %” value in the assay on Male Hartley guinea pigs [4] (setting [10]) and with Male Hartley guinea pigs [4] (setting [11]) were 31% and 58%, respectively. In addition, the entries for the “Log PD200” value with Male Hartley guinea pigs [5] (setting [10]) and in the assay on Male Hartley guinea pigs [5] (setting [11]) were 1.25 ± 0.05 and 1.52 ± 0.06**, respectively.
